This is an account of results in patent publication US20150313215A1, “PESTICIDAL MIXTURES” (priority 2010, published 2015).

Assay type in all cases: in vivo
For one assay, the system named is Phakopsora pachyrhizi. As to the kind of experiment: Greenhouse experiments, control of soybean rust on soybean, foliar spray. Conditions: Halo methylene benzonorbornene amide 1 gai/ha. As for the experimental part: Control of Phakopsora pachyrhizi on Soybean
Greenhouse experiments were conducted to evaluate the ability of cis-jasmone to enhance fungicidal activity of a single agrochemical active ingredient and also of a mixture of two agrochemical active ingredients. A fungicidally active ingredient, N-[(1RS,4SR)-9-(Dichloromethylidene)-1,2,3,4-tetrahydro-1,4-methanonaphthalen-5-yl]-3-(difluoromethyl)-1-methyl-1H-pyrazole-4-carboxamide (“halo methylene benzonorbornene amide”), alone or in admixture with another fungicidally active ingredient, azoxystrobin, controls soybean rust when applied as a foliar spray. See data in Table 7.

Assay [1] has as its system Two Spotted Spider Mite Tetranychus urticae. Description: Field trial, control of two spotted spider mite on kidney beans. The following applies: 2 foliar sprays at 10 day intervals, 11 evaluation dates Day 3 to Day 35. As for the experimental part: Control of Two Spotted Spider Mite Tetranychus urticae on Kidney Beans
A field trial using a plot size of 20 m^2, 3 replicates and 2 foliar sprays at 500 I/ha at 10 day intervals was assessed for average mite population/20 leaves/plot from 11 evaluation dates from Day 3 to Day 35 after treatment.

In assay [2] the test system is Currant-Lettuce Aphid Nasonova ribis-nigri. As to the kind of experiment: Field trial, control of currant-lettuce aphid on lettuce (Example 2). Conditions: 1 foliar spray; for Average Number of Aphids per Plant: apterous aphids. Here is the method: (§1) Control of Currant-Lettuce Aphid Nasonova ribis-nigri on Lettuce
A field trial using plots of 20 plants, 3 replicates and 1 foliar spray was assessed for number of apterous aphids/plant and number of infected plants on Day 4, Day 8, Day 11 and Day 14 after treatment. Data for untreated control are an average of four control plots (each 3 replicates; 240 total plants) which were interspersed within the treated plots.

The test system is the same in assay [3]. Description: Field trial, control of currant-lettuce aphid on lettuce (Example 3). The following applies: 1 foliar spray, apterous aphids. As for the experimental part:
as §1
A field trial using plots of 20 plants, 4 replicates and 1 foliar spray was assessed for number of apterous aphids/plant on Day 3, Day 7 and Day 10 after treatment.

Another assay concerns Thrips Thrips Tabaci. As to the kind of experiment: Field trial, control of thrips on cotton. Conditions: for Average Number of Thrips per Plant: 1 foliar spray, adult thrips; for average number of thrips per plant observed across all days monitored: Day 1 to Day 22. Here is the method:
Control of Thrips Thrips Tabaci on Cotton
A field trial using 21 m^2 plots, 3 replicates and 1 foliar spray was assessed for number of adult thrips/plant on Day 1, Day 3, Day 5, Day 8, Day 10, Day 15, and Day 22 after treatment. Data for untreated control are an average of four control plots.

Assay [4] concerns Aphid Aphis gossypii. Description: Field trial, control of aphid on cotton (Example 5). Conditions: for Average Number of Aphids per Plant: 1 foliar spray, apterous adults; for average number of aphids per plant observed across all days monitored: Day 1 to Day 22. Here is the method: (§2) Control of Aphid Aphis gossypii on Cotton
A field trial using 21 m^2 plots, 3 replicates and 1 foliar spray was assessed for number of apterous adults/plant on Day 1, Day 3, Day 5, Day 8, Day 10, Day 15, and Day 22 after treatment. Data for untreated control are an average of four control plots.

The test system of assay [5] is Aphid Aphis gossypii. As to the kind of experiment: Field trial, control of aphid on cotton (Example 6). Conditions: 1 foliar spray, 8 evaluation dates from Day 3 to Day 29. Here is the method:
as §2
A field trial using plots of 20 plants, 3 replicates and 1 foliar spray was assessed for number of alate and apterous aphids/plant from 8 evaluation dates from Day 3 to Day 29 after treatment. Data for untreated control are an average of four control plots (each 3 replicates; 240 total plants) which were interspersed within the treated plots.

Where [6] appears, read: Cis-jasmone 50 gai/hl, Day 4 after treatment.
Setting [7] is: Cis-jasmone 50 gai/hl, Day 8 after treatment.
Where [8] appears, read: Cis-jasmone 50 gai/hl, Day 11 after treatment.
[9] abbreviates: Cis-jasmone 50 gai/hl, Day 14 after treatment.
Where [10] appears, read: Cis-jasmone 50 gai/hl, Day 1 after treatment.
Setting [11] is: Cis-jasmone 50 gai/hl, Day 3 after treatment.
The mark [12] stands for this setting: Cis-jasmone 50 gai/hl, Day 5 after treatment.
[13] abbreviates: Cis-jasmone 50 gai/hl, Day 10 after treatment.
[14] abbreviates: Cis-jasmone 50 gai/hl, Day 15 after treatment.
Setting [15] is: Cis-jasmone 50 gai/hl, Day 22 after treatment.
The mark [16] stands for this setting: Thiamethoxam 30 gai/hl, Day 4 after treatment.
Where [17] appears, read: Thiamethoxam 30 gai/hl, Day 8 after treatment.
Setting [18] is: Thiamethoxam 30 gai/hl, Day 11 after treatment.
[19] abbreviates: Thiamethoxam 30 gai/hl, Day 14 after treatment.
Where [20] appears, read: Thiamethoxam 30 gai/hl, Day 1 after treatment.
Where [21] appears, read: Thiamethoxam 30 gai/hl, Day 3 after treatment.
[22] abbreviates: Thiamethoxam 30 gai/hl, Day 5 after treatment.
Setting [23] is: Thiamethoxam 30 gai/hl, Day 10 after treatment.
[24] abbreviates: Thiamethoxam 30 gai/hl, Day 15 after treatment.
Where [25] appears, read: Thiamethoxam 30 gai/hl, Day 22 after treatment.

For the molecule `Cn1cc(C(=O)Nc2cccc3c2[C@@H]2CC[C@H]3C2=C(Cl)Cl)c(C(F)F)n1` (racemic) [Halo methylene benzonorbornene amide, N-[(1RS,4SR)-9-(Dichloromethylidene)-1,2,3,4-tetrahydro-1,4-methanonaphthalen-5-yl]-3-(difluoromethyl)-1-methyl-1H-pyrazole-4-carboxamide], in the assay with Phakopsora pachyrhizi, the “Percentage Fungicidal Activity” value was found to be 20%.

For the molecule `CC/C=C\CC1=C(C)CCC1=O` [Cis-jasmone, cis-jasmone], the “% pest control versus untreated check” value in assay [1] (Cis-jasmone 5 gai/hl, mite population/20 leaves/plot) stood at 51.00%. Further, the “Number of Infested Plants (out of 60)” value in assay [2] (setting [6]) is listed as 21; in assay [2] (setting [7]), 48; in assay [2] (setting [8]), 59; in assay [2] (setting [9]), 60. Also, the “Average Number of Aphids per Plant” value is recorded as 0.57 in assay [2] (setting [6]); 3.28 in assay [2] (setting [7]); 8.02 in assay [2] (setting [8]); 19.25 in assay [2] (setting [9]); 2.963 in assay [3] (Cis-jasmone at 100 gai/hl, Day 3 after treatment); 6.563 in assay [3] (Cis-jasmone at 100 gai/hl, Day 7 after treatment). Also, the “Average Number of Aphids per Plant” value in assay [3] (Cis-jasmone at 100 gai/hl, Day 10 after treatment) came to 12.375; in the assay on Aphid Aphis gossypii [4] (setting [10]), 40; in the assay on Aphid Aphis gossypii [4] (setting [11]), 33; in the assay on Aphid Aphis gossypii [4] (setting [12]), 45; with Aphid Aphis gossypii [4] (setting [7]), 126; in the assay on Aphid Aphis gossypii [4] (setting [13]), 139. Besides, the entries for the “Average Number of Aphids per Plant” value in the assay with Aphid Aphis gossypii [4] (setting [14]) and in the assay with Aphid Aphis gossypii [4] (setting [15]) were 27 and 14, respectively. The “Average Number of Thrips per Plant” value in the assay with Thrips Thrips Tabaci (setting [10]) stood at 24; in the assay on Thrips Thrips Tabaci (setting [11]) it was 19; in the assay on Thrips Thrips Tabaci (setting [12]), 28; in the assay on Thrips Thrips Tabaci (setting [7]) it was 48; in the assay with Thrips Thrips Tabaci (setting [13]) it was 58; with Thrips Thrips Tabaci (setting [14]) it was 65. Moreover, the “Average Number of Thrips per Plant” value with Thrips Thrips Tabaci (setting [15]) is reported as 32. The “average number of thrips per plant observed across all days monitored” value in the assay on Thrips Thrips Tabaci (Cis-jasmone 50 gai/hl) was 39. Moreover, the “average number of aphids per plant observed across all days monitored” value with Aphid Aphis gossypii [4] (Cis-jasmone 50 gai/hl) was 61. The “Average Number of Aphids/Plant, Alate” value in the assay on Aphid Aphis gossypii [5] (Cis-Jasmone 50 gai/hl) was determined as 18. Moreover, the “Average Number of Aphids/Plant, Apterous” value in the assay on Aphid Aphis gossypii [5] (Cis-Jasmone 50 gai/hl) was 260.

`CNC(=O)c1cc(C#N)cc(C)c1NC(=O)c1cc(Br)nn1-c1ncccc1Cl` [Cyantraniliprole, cyantraniliprole]: the “Average Number of Aphids/Plant, Alate” value in the assay on Aphid Aphis gossypii [5] (Cyantraniliprole 100 gai/hl) was 17; in the assay with Aphid Aphis gossypii [5] (Cyantraniliprole 200 gai/hl) it was 16. For the same molecule, the “Average Number of Aphids/Plant, Apterous” value came to 235 in the assay with Aphid Aphis gossypii [5] (Cyantraniliprole 100 gai/hl) and 179 with Aphid Aphis gossypii [5] (Cyantraniliprole 200 gai/hl).

Regarding `CN1COCN(Cc2cnc(Cl)s2)/C1=N\[N+](=O)[O-]` [Thiamethoxam, thiamethoxam], the “Number of Infested Plants (out of 60)” value was 1 in assay [2] (setting [16]), 3 in assay [2] (setting [17]), 15 in assay [2] (setting [18]) and 22 in assay [2] (setting [19]). Also, the “Average Number of Aphids per Plant” value is reported as 0.05 in assay [2] (setting [16]); 0.12 in assay [2] (setting [17]); 1 in assay [2] (setting [18]); 2.25 in assay [2] (setting [19]); 0.063 in assay [3] (Thiamethoxam at 25 gai/hl, Day 3 after treatment); 0.788 in assay [3] (Thiamethoxam at 25 gai/hl, Day 7 after treatment). Besides, the “Average Number of Aphids per Plant” value in assay [3] (Thiamethoxam at 25 gai/hl, Day 10 after treatment) is given as 4.813; in the assay on Aphid Aphis gossypii [4] (setting [20]), 41; with Aphid Aphis gossypii [4] (setting [21]), 20; in the assay with Aphid Aphis gossypii [4] (setting [22]), 23; with Aphid Aphis gossypii [4] (setting [17]), 26; in the assay with Aphid Aphis gossypii [4] (setting [23]) it was 33. The “Average Number of Aphids per Plant” value in the assay on Aphid Aphis gossypii [4] (setting [24]) was found to be 20; with Aphid Aphis gossypii [4] (setting [25]), 10. In addition, the “Average Number of Thrips per Plant” value stood at 31 in the assay on Thrips Thrips Tabaci (setting [20]); 17 in the assay on Thrips Thrips Tabaci (setting [21]); 27 in the assay with Thrips Thrips Tabaci (setting [22]); 15 in the assay with Thrips Thrips Tabaci (setting [17]); 27 in the assay on Thrips Thrips Tabaci (setting [23]); 52 with Thrips Thrips Tabaci (setting [24]). In addition, in the assay on Thrips Thrips Tabaci (setting [25]), the “Average Number of Thrips per Plant” value was 29. For the same molecule, the “average number of thrips per plant observed across all days monitored” value with Thrips Thrips Tabaci (Thiamethoxam 30 gai/hl) amounted to 28. In addition, the “average number of aphids per plant observed across all days monitored” value in the assay on Aphid Aphis gossypii [4] (Thiamethoxam 30 gai/hl) was 25.

As for abamectin, the “% pest control versus untreated check” value worked out at 41.22% in assay [1] (Abamectin 0.45 gai/hl) and 56.56% in assay [1] (Abamectin 0.9 g active ingredient/hl).
